Reference: ChEMBL document CHEMBL1201862, “PubChem BioAssay data set” (2004)
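1) Cells in 96-well plates. 2) Compound, 48 h, 5 concentrations. 3) Linear interpolation between surrounding doses. 4) Unreached endpoint = highest concentration. GI50: concentration for 50% inhibition of growth.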 Activity calls are given as the source filed them. No stated cut-off is given here; in the data, active = GI50 up to about 1.1 µM and inactive = higher.

What was measured:
Test in all cases: growth of human tumour cells (NCI), 48 h
MDA-MB-435 = test system: MDA-MB-435
SF-539 = test system: SF-539
OVCAR-4 = test system: OVCAR-4
CCRF-CEM = test system: CCRF-CEM
PC-3 = test system: PC-3
U-251 = test system: U-251
SNB-19 = test system: SNB-19
SW-620 = test system: SW-620
DU-145 = test system: DU-145
786-0 = test system: 786-0
TK-10 = test system: TK-10
OVCAR-8 = test system: OVCAR-8
ACHN = test system: ACHN
MDA-MB-231 = test system: MDA-MB-231
RXF 393 = test system: RXF 393
SF-295 = test system: SF-295
KM12 = test system: KM12
NCI-H460 = test system: NCI-H460
SK-OV-3 = test system: SK-OV-3

Measured: GI50

CN(C)Nc1cc(=O)[nH]c(=O)[nH]1
inactive: MDA-MB-435 > 100 µM | SF-539 > 100 µM | OVCAR-4 > 100 µM | CCRF-CEM > 100 µM | PC-3 > 100 µM | U-251 > 100 µM | SNB-19 > 100 µM | SW-620 > 100 µM | DU-145 > 100 µM | 786-0 > 100 µM | TK-10 > 100 µM | OVCAR-8 > 100 µM | ACHN > 100 µM | MDA-MB-231 > 100 µM | RXF 393 > 100 µM | SF-295 > 100 µM | KM12 > 100 µM | NCI-H460 > 100 µM

CCN(CCCN(CC)C(=O)N[C@@H](Cc1ccccc1)C(=O)NC)C(=O)N[C@@H](Cc1ccccc1)C(=O)NC
inactive: MDA-MB-435 > 100 µM | SF-539 > 100 µM | OVCAR-4 > 100 µM | PC-3 > 100 µM | U-251 > 100 µM | SNB-19 > 100 µM | SW-620 > 100 µM | SK-OV-3 > 100 µM | DU-145 > 100 µM | 786-0 > 100 µM | TK-10 > 100 µM | OVCAR-8 > 100 µM | ACHN > 100 µM | MDA-MB-231 > 100 µM | RXF 393 > 100 µM | SF-295 > 100 µM | KM12 > 100 µM | NCI-H460 > 100 µM

CC(C)(C)OC(=O)/C=C/[C@@H](CCC(=O)/C=C/[C@H](/C=C\CCCC(=O)O)NC1(c2ccccc2)c2ccccc2-c2ccccc21)O[Si](C)(C)C(C)(C)C
inactive: MDA-MB-435 17.8 µM | SF-539 18.2 µM | OVCAR-4 17.1 µM | CCRF-CEM 29.2 µM | PC-3 13.5 µM | U-251 16.3 µM | SNB-19 20.6 µM | SW-620 26.9 µM | SK-OV-3 46.6 µM | DU-145 16.6 µM | 786-0 16.1 µM | TK-10 24.8 µM | OVCAR-8 18.1 µM | ACHN 17.8 µM | MDA-MB-231 14.1 µM | RXF 393 11.5 µM | SF-295 15.5 µM | KM12 18.1 µM | NCI-H460 17.6 µM

C=CCCC1CCCCNC1=S (centres undefined)
inactive: MDA-MB-435 > 10 µM | SF-539 > 10 µM | OVCAR-4 > 10 µM | CCRF-CEM > 10 µM | PC-3 > 10 µM | U-251 > 10 µM | SNB-19 > 10 µM | SW-620 > 10 µM | SK-OV-3 > 10 µM | DU-145 > 10 µM | 786-0 > 10 µM | TK-10 > 10 µM | OVCAR-8 > 10 µM | ACHN > 10 µM | MDA-MB-231 > 10 µM | RXF 393 > 10 µM | SF-295 > 10 µM | KM12 > 10 µM | NCI-H460 > 10 µM
